In this assay the target is T1, crenactin (Pc crenactin) (Pyrobaculum calidifontis, UniProt A3MWN5).
T1 construct: gene cren-1; full length 1-432, codon-optimised, expressed in E. coli as His6-SUMO fusion, tag cleaved by SENP1 with no residues added or removed; helical filament in crystal
The assay can be described thus: X-ray crystallography, […] Å. The conditions noted are these: crystals from 100 mM phosphate/citrate pH 4.2, 200 mM lithium sulfate, 20% PEG 1000; one ADP per subunit, 0 Mg; nucleotide cleft between domains I and II. The class given is binding.

Molecules are shown by their SMILES.

T1 sequence (A3MWN5 whole entry, the tested form may be a part): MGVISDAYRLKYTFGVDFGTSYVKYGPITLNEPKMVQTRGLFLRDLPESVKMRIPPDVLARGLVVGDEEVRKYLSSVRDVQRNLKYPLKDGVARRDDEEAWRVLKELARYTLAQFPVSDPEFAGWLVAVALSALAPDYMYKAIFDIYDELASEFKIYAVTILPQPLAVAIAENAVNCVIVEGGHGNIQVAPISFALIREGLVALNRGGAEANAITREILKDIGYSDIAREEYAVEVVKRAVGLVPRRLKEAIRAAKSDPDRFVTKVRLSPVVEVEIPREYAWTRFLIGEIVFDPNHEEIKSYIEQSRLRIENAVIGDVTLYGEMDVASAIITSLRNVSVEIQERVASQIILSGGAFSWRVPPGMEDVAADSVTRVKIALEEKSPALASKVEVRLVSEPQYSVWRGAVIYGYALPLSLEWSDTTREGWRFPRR

For `Nc1ncnc2c1ncn2[C@@H]1O[C@H](COP(=O)(O)OP(=O)(O)O)[C@@H](O)[C@H]1O` [ADP], the “X-ray crystallography, 3.2 Å” value is “one molecule of ADP was located and added in each crenactin subunit”.
